# Reference: patent US10202360B2 (CELGENE QUANTICEL RESEARCH, INC., priority 2016, dated 2019)
# Molecular target: CREBBP (Homo sapiens (Human), UniProt Q92793)
# Assay: In vitro enzyme inhibition assay - CREBBP inhibition (AlphaScreen, biotinylated H4-tetraacetyl peptide)
# Type: binding
# Settings: Table 28; AlphaScreen, H4-tetraacetyl peptide
# Summary of the method: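 Displacement of 20 nM biotinylated tetraacetyl-H4 peptide from 50 nM E. coli-expressed His-CREBBP, measured by AlphaScreen after bead equilibration for 2 h.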
# CREBBP, sequence (Q92793 1081-1197): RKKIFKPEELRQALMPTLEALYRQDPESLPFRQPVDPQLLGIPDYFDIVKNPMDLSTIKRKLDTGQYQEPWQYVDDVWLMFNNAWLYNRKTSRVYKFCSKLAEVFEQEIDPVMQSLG
row,SMILES,IC50 [nM]
1,"CCS(=O)(=O)Nc1cc(-c2cc(C)c(=O)n(C)c2)nc(OC2CCCC2)n1 [Example 131, Ethanesulfonic acid [2-cyclopentyloxy-6-(1,5-dimethyl-6-oxo-1,6-dihydro-pyridin-3-yl)-pyrimidin-4-yl]-amide]",< 500
2,"CCCS(=O)(=O)Nc1cc(-c2cc(C)c(=O)n(C)c2)nn1C [Example 336, Propane-1-sulfonic acid [5-(1,5-dimethyl-6-oxo-1,6-dihydro-pyridin-3-yl)-2-methyl-2H-pyrazol-3-yl]-amide]",500 to 5000
3,"CCCC(C)S(=O)(=O)Nc1cc(-c2ccc(=O)n(C)c2)nc(Oc2c(F)cccc2Cl)n1 (centres unmarked) [Example 242, Pentane-2-sulfonic acid [2-(2-chloro-6-fluoro-phenoxy)-6-(1-methyl-6-oxo-1,6-dihydro-pyridin-3-yl)-pyrimidin-4-yl]-amide]",< 500
4,"Cc1ccc(Cl)c(Oc2nc(NS(=O)(=O)C(C)C)cc(-c3cc(C)c(=O)n(C)c3)n2)c1 [Example 5, Propane-2-sulfonic acid [2-(2-chloro-5-methyl-phenoxy)-6-(1,5-dimethyl-6-oxo-1,6-dihydro-pyridin-3-yl)-pyrimidin-4-yl]-amide]",< 500
5,"CCn1nc(C)c(Oc2nc(NS(=O)(=O)C(C)C)cc(-c3cc(C)c(=O)n(C)c3)n2)c1C [Example 127, Propane-2-sulfonic acid [6-(1,5-dimethyl-6-oxo-1,6-dihydro-pyridin-3-yl)-2-(1-ethyl-3,5-dimethyl-1H-pyrazol-4-yloxy)-pyrimidin-4-yl]-amide]",< 500
6,"CCC(F)S(=O)(=O)Nc1cc(-c2ccc(=O)n(C)c2)nc(Oc2c(C)cccc2F)n1 (centres unmarked) [Example 168, 1-Fluoro-propane-1-sulfonic acid [2-(2-fluoro-6-methyl-phenoxy)-6-(1-methyl-6-oxo-1,6-dihydro-pyridin-3-yl)-pyrimidin-4-yl]-amide]",< 500
7,"Cc1cc2c(Oc3nc(NS(=O)(=O)C(C)C)cc(-c4cc(C)c(=O)n(C)c4)n3)cccc2o1 [Example 58, N-(6-(1,5-dimethyl-6-oxo-1,6-dihydropyridin-3-yl)-2-((2-methylbenzofuran-4-yl)oxy)pyrimidin-4-yl)propane-2-sulfonamide]",< 500
8,"CCc1ccc(C(C)Nc2cc(-c3ccc(=O)n(C)c3)nc(Oc3c(C)cccc3F)n2)cc1 (centres unmarked) [Example 279, 5-(6-((1-(4-ethylphenyl)ethyl)amino)-2-(2-fluoro-6-methylphenoxy)pyrimidin-4-yl)-1-methylpyridin-2(1H)-one]",< 500
9,"CCCCS(=O)(=O)Nc1cc(Oc2c(C)cccc2C)nc(-c2cc(C)c(=O)n(C)c2)n1 [Example 56, Butane-1-sulfonic acid [2-(1,5-dimethyl-6-oxo-1,6-dihydro-pyridin-3-yl)-6-(2,6-dimethyl-phenoxy)-pyrimidin-4-yl]-amide]",< 500
10,"CCCCNc1cc(-c2ccc(=O)n(C)c2)nc(Oc2c(C)cccc2Cl)n1 [Example 312, 5-[6-Butylamino-2-(2-chloro-6-methyl-phenoxy)-pyrimidin-4-yl]-1-methyl-1H-pyridin-2-one]",< 500
11,"Cc1ccc(F)c(Oc2nc(NS(=O)(=O)C(C)C)cc(-c3ccc(=O)n(C)c3)n2)c1Cl [Example 256, Propane-2-sulfonic acid [2-(2-chloro-6-fluoro-3-methyl-phenoxy)-6-(1-methyl-6-oxo-1,6-dihydro-pyridin-3-yl)-pyrimidin-4-yl]-amide]",< 500
12,"Cc1cc(-c2cc(NS(=O)(=O)C(C)C)nc(OCC(C)C)n2)cn(C)c1=O [Example 152, N-(6-(1,5-dimethyl-6-oxo-1,6-dihydropyridin-3-yl)-2-isobutoxypyrimidin-4-yl)propane-2-sulfonamide]",< 500
13,"COc1cc(-c2cc(NS(=O)(=O)C(C)C)nc(Oc3c(C)cccc3C)n2)cn(C)c1=O [Example 105, N-(2-(2,6-dimethylphenoxy)-6-(5-methoxy-1-methyl-6-oxo-1,6-dihydropyridin-3-yl)pyrimidin-4-yl)propane-2-sulfonamide]",< 500
14,"Cc1cc(-c2cc(NS(=O)(=O)C(C)C)nc(Oc3c(F)cccc3F)n2)cn(C)c1=O [Example 17, Propane-2-sulfonic acid [2-(2,6-difluoro-phenoxy)-6-(1,5-dimethyl-6-oxo-1,6-dihydro-pyridin-3-yl)-pyrimidin-4-yl]-amide]",< 500
15,"CC[C@@H](C)S(=O)(=O)Nc1cc(-c2ccc(=O)n(C)c2)nc(Oc2c(F)cccc2Cl)n1 [Example 207, Butane-(2R)-sulfonic acid [2-(2-chloro-6-fluoro-phenoxy)-6-(1-methyl-6-oxo-1,6-dihydro-pyridin-3-yl)-pyrimidin-4-yl]-amide]",< 500
16,"Cc1cccc(F)c1Oc1nc(NC(C)c2ccccc2)cc(-c2ccc(=O)n(C)c2)n1 (centres unmarked) [Example 298, 5-[2-(2-Fluoro-6-methyl-phenoxy)-6-(1-phenyl-ethylamino)-pyrimidin-4-yl]-1-methyl-1H-pyridin-2-one]",< 500
17,"CCS(=O)(=O)Nc1nc(OC(C)C)nc(-c2ccc(=O)n(C)c2)n1 [Example 200, Ethanesulfonic acid [4-isopropoxy-6-(1-methyl-6-oxo-1,6-dihydro-pyridin-3-yl)-[1,3,5]triazin-2-yl]-amide]",500 to 5000
18,"Cc1cccc(C#N)c1Oc1nc(NS(=O)(=O)CCCC(F)(F)F)cc(-c2ccc(=O)n(C)c2)n1 [Example 150, N-(2-(2-cyano-6-methylphenoxy)-6-(1-methyl-6-oxo-1,6-dihdyropyridin-3-yl)pyrimidin-4-yl)-4,4,4-trifluorobutane-1-sulfonamide]",< 500
19,"CC[C@H](C)S(=O)(=O)Nc1cc(-c2ccc(=O)n(C)c2)nc(Oc2c(C)ccc(F)c2F)n1 [Example 213, (2S)-Butane-2-sulfonic acid [2-(2,3-difluoro-6-methyl-phenoxy)-6-(1-methyl-6-oxo-1,6-dihydro-pyridin-3-yl)-pyrimidin-4-yl]-amide]",< 500
20,"CC[C@H](C)S(=O)(=O)Nc1cc(-c2ccc(=O)n(C)c2)nc(Oc2c(F)cccc2OC)n1 [Example 209, Butane-(2S)-sulfonic acid [2-(2-fluoro-6-methoxy-phenoxy)-6-(1-methyl-6-oxo-1,6-dihydro-pyridin-3-yl)-pyrimidin-4-yl]-amide]",< 500

# Other lines, results leading:
row,IC50 [nM],SMILES
1,< 500,"Cc1cccc(F)c1Oc1nc(NS(=O)(=O)CCCF)cc(-c2ccc(=O)n(C)c2)n1 [Example 136, 3-Fluoro-propane-1-sulfonic acid [2-(2-fluoro-6-methyl-phenoxy)-6-(1-methyl-6-oxo-1,6-dihydro-pyridin-3-yl)-pyrimidin-4-yl]-amide]"
2,< 500,"CCS(=O)(=O)Nc1cc(-c2cc(C)c(=O)n(C)c2)nc(Cc2ccc(F)cc2F)n1 [Example 94, Ethanesulfonic acid [2-(2,4-difluoro-benzyl)-6-(1,5-dimethyl-6-oxo-1,6-dihydro-pyridin-3-yl)-pyrimidin-4-yl]-amide]"
3,< 500,"CCCS(=O)(=O)Nc1cc(-c2cc(C)c(=O)n(C)c2)nc(Oc2c(C)cccc2C#N)n1 [Example 23, Propane-1-sulfonic acid [2-(2-cyano-6-methyl-phenoxy)-6-(1,5-dimethyl-6-oxo-1,6-dihydro-pyridin-3-yl)-pyrimidin-4-yl]-amide]"
4,< 500,"Cc1nn(C)c(C)c1Oc1nc(NS(=O)(=O)C(C)C)cc(-c2ccc(=O)n(C)c2)n1 [Example 125, Propane-2-sulfonic acid [6-(1-methyl-6-oxo-1,6-dihydro-pyridin-3-yl)-2-(1,3,5-trimethyl-1H-pyrazol-4-yloxy)-pyrimidin-4-yl]-amide]"
5,< 500,"CC[C@@H](C)S(=O)(=O)Nc1cc(-c2ccc(=O)n(C)c2)nc(Oc2c(F)cccc2C2CC2)n1 [Example 210, Butane-(2R)-sulfonic acid [2-(2-cyclopropyl-6-fluoro-phenoxy)-6-(1-methyl-6-oxo-1,6-dihydro-pyridin-3-yl)-pyrimidin-4-yl]-amide]"
6,< 500,"CCCCS(=O)(=O)Nc1cc(-c2cc(C)c(=O)n(C)c2)nc(Oc2cccc3c2ccn3C)n1 [Example 75, N-(6-(1,5-dimethyl-6-oxo-1,6-dihydropyridin-3-yl)-2-((1-methyl-1H-indol-4-yl)oxy)pyrimidin-4-yl)butane-1-sulfonamide]"
7,< 500,"CCC[C@H](C)S(=O)(=O)Nc1cc(-c2ccc(=O)n(C)c2)nc(Oc2c(F)cccc2Cl)n1 [Example 218, (2S)-Pentane-2-sulfonic acid [2-(2-chloro-6-fluoro-phenoxy)-6-(1-methyl-6-oxo-1,6-dihydro-pyridin-3-yl)-pyrimidin-4-yl]-amide]"
8,< 500,"Cc1cc(-c2cc(N(C)S(=O)(=O)C(C)C)nc(Oc3ccc(F)cc3F)n2)cn(C)c1=O [Example 73, N-(2-(2,4-difluorophenoxy)-6-(1,5-dimethyl-6-oxo-1,6-dihydropyridin-3-yl)pyrimidin-4-yl)-N-methylpropane-2-sulfonamide]"
9,< 500,"Cc1cccc(F)c1Oc1nc(NCc2ccccn2)cc(-c2ccc(=O)n(C)c2)n1 [Example 302, 5-{2-(2-Fluoro-6-methyl-phenoxy)-6-[(pyridin-2-ylmethyl)-amino]-pyrimidin-4-yl}-1-methyl-1H-pyridin-2-one]"
10,< 500,"CCCS(=O)(=O)Nc1cc(-c2ccc(=O)n(C)c2)nc(OC(C)C)n1 [Example 237, Propane-1-sulfonic acid [2-isopropoxy-6-(1-methyl-6-oxo-1,6-dihydro-pyridin-3-yl)-pyrimidin-4-yl]-amide]"
11,< 500,"Cc1cc(Cl)cc(Cl)c1Oc1nc(NS(C)(=O)=O)cc(-c2cc(C)c(=O)n(C)c2)n1 [Example 25, N-[2-(2,4-Dichloro-6-methyl-phenoxy)-6-(1,5-dimethyl-6-oxo-1,6-dihydro-pyridin-3-yl)-pyrimidin-4-yl]-methanesulfonamide]"
12,< 500,"Cc1cccc(C#N)c1Oc1nc(NS(=O)(=O)CCC(F)(F)F)cc(-c2ccc(=O)n(C)c2)n1 [Example 149, N-(2-(2-cyano-6-methylphenoxy)-6-(1-methyl-6-oxo-1,6-dihydropyridin-3-yl)pyrimidin-4-yl)-3,3,3-trifluoropropane-1-sulfonamide]"
